# Experimental data from article PMC12045974, “T cell toxicity induced by tigecycline binding to the mitochondrial ribosome” (Nature Communications, 2025).
# Values joined by “and” are separate entries in the source; they are usually repeats but may differ in a detail not shown here. Equal values may be shown once.
# Tests used:
# [1] = tested on: Jurkat T cells; assay: Cell viability assay (CCK-8), Jurkat T cells; format: cell-based, human; details: for cell vialibity normalized to Vehicle (DMSO): in % (unit assumed)
# Description: (§1) Cells were seeded in 96-well plates ranging from 2000 to 15,000 cells per well depending on different cell lines and treated with antibiotics in serial dilutions for 72 h (120 h for the preliminary assays) in a humidified incubator (37 °C, 5% CO2) in 100 μl medium (DMEM with 10% FBS, 2.05 mM L-glutamine (Sigma) for Hek293 and Hela; RPMI-1640 with 10% FBS, 2.05 mM L-glutamine (Sigma), and 55 μM 2-ME (Gibco) for Jurkat T cells and PBMCs). Based on preliminary tests, the number of cells per well was optimized to 2000 for Hela and Hek293, 6000 for Jurkat T cells, and 15,000 for PBMCs. The stocks of antibiotics were prepared by dissolving in DMSO. As control, the same amount of DMSO was added to the non-treated groups. Serial drug dilutions were prepared in the corresponding medium to provide a total of 9 concentrations up to 300 μM for tetracyclines and up to 900 μM for additional bacterial protein synthesis inhibitors. After drug treatment, 10% CCK-8 (Cell Counting Kit-8, Sigma Aldrich) (10 μl per well) of the total volume was added to the cells and incubated for 1–4 h depending on cell lines (1 h for Hela and Hek293; 3 h for Jurkat T cells; 4 h for PBMCs) before the evaluation of the effect of antibiotics on cell viability. […] Results were visually confirmed under the light microscope. Each treatment was performed in technical repeats. Dose-response curves were plotted, mean ± SEM was shown, and half maximal inhibitory concentration (IC50) values were calculated in GraphPad Prism.
# [2] = tested on: mitochondrial translation in CD4+ and CD8+ T cells; assay: Mito-FUNCAT-FACS assay of mitochondrial translation on activated T cells; format: cell-based, human; details: per PBMC donor, listed as Pos ctrl
# Description: Thawed PBMCs were washed with RPMI ( + 10% FBS, 2.05 mM L-glutamine (Sigma), and 55 μM 2-ME (Gibco)) before resting at 37 °C (5% CO2) for 30 min. After counting, cells were resuspended in FACS buffer at a density of 5 × 10^7 cells/ml. T cells were isolated using EasySep™ Human T Cell Isolation Kit (Stemcell Technologies). Purified T cells were counted and 85,000 cells per well seeded onto 96-well U-bottom plates with/without Human T-Activator CD3/CD28 beads (Invitrogen) at a 1:2.8 cell:bead ratio and 10 ng/ml IL-2 (Proteintech) in RPMI-1640 ( + 10% FBS, 2.05 mM L-glutamine (Sigma), and 55 μM 2-ME (Gibco)) for 48 h. To assess mitochondrial translation, activated T cells were washed twice with methionine/cysteine/pyruvate-free DMEM and incubated in methionine-depletion medium (DMEM supplemented with 10% dialyzed FBS, 1× GlutaMAX, 1× sodium pyruvate, and 0.2 mM L-cystine) for 30 min at 37 °C. To inhibit cytosolic translation, anisomycin (100 μg/mL) was added to the medium. For mitochondrial translation inhibition, 100 µg/mL chloramphenicol (309 μM, positive control) or tigecycline (2.5−10 μM) were added to the medium. Cells were then labeled with 50 μM L-homopropargylglycine (HPG) for 3 h at 37 °C, during which time the medium still contained antibiotics.
# Following HPG labeling, cells were collected and stained with surface markers (CD4, CD8). Cells were pre-permeabilized with 0.005% digitonin in mitochondria-protective buffer (10 mM HEPES/KOH, 10 mM NaCl, 5 mM MgCl2, 300 mM sucrose, pH 7.5) for 3 min, fixed with 4% paraformaldehyde for 10 min, and fully permeabilized with 0.25% Triton X-100 for 5 min. After blocking with 5% BSA for 10 min, incorporated HPG was detected via copper-catalyzed cycloaddition using 0.05 μM Alexa Fluor 488 picolyl azide (Click-iT™ Plus Alexa Fluor™ 488 Picolyl Azide Toolkit, Gibco) for 30 min at room temperature. Subsequently, the reaction cocktail was removed and cells resuspended in FACS buffer. Flow cytometry was carried out on a BD Celesta (BD Biosciences) and analyzed in FlowJo (TreeStar). Data are presented as fold change relative to negative controls.
# [3] = tested on: HeLa cells; assay: Cell viability assay (CCK-8), HeLa cells; format: cell-based; details: for cell vialibity normalized to Vehicle (DMSO): in % (unit assumed)
# Description: as §1
compound,measurement,setting,value
"O=C(N[C@H](CO)[C@H](O)c1ccc([N+](=O)[O-])cc1)C(Cl)Cl [Chloramphenicol, chloramphenicol]",IC50,"[1]; Homo sapiens, 120 h, Jurkat T cells, after 5 days, read-out: IC50 (cell survival)",25.9 µM
same,cell vialibity normalized to Vehicle (DMSO),"[1]; Jurkat 3d, dose 1 μM",91.6279 and 94.5323 and 104.434 and 103.886 and 105.55
same,cell vialibity normalized to Vehicle (DMSO),"[1]; Jurkat 3d, dose 5 μM",74.0465 and 84.1447 and 84.7132 and 88.5271 and 87.2868
same,cell vialibity normalized to Vehicle (DMSO),"[1]; Jurkat 3d, dose 10 μM",63.1628 and 61.0232 and 47.7623 and 47.907 and 61.2196
same,cell vialibity normalized to Vehicle (DMSO),"[1]; Jurkat 3d, dose 50 μM",13.1266 and 12.4444 and 12.0827 and 12.6408 and 12.4548
same,cell vialibity normalized to Vehicle (DMSO),"[1]; Jurkat 3d, dose 100 μM",11.7933 and 11.4419 and 11.2455 and 11.1111 and 11.3282
same,cell vialibity normalized to Vehicle (DMSO),"[1]; Jurkat 5d, dose 1 μM",106.953 and 119.838 and 129.235 and 117.806 and 137.373
same,cell vialibity normalized to Vehicle (DMSO),"[1]; Jurkat 5d, dose 5 μM",116.039 and 104.909 and 120.616 and 122.485 and 146.087
same,cell vialibity normalized to Vehicle (DMSO),"[1]; Jurkat 5d, dose 10 μM",103.365 and 68.172 and 100.846 and 74.0691 and 124.665
same,cell vialibity normalized to Vehicle (DMSO),"[1]; Jurkat 5d, dose 50 μM",10.0745 and 7.603 and 8.334 and 7.062 and 9.025
same,cell vialibity normalized to Vehicle (DMSO),"[1]; Jurkat 5d, dose 100 μM",7.529 and 7.5694 and 7.36 and 6.913 and 8.592
same,mitochondrial translation (fold change relative to negative control),"[2]; CD4, positive control 309 μM",0.3672 and 0.3419 and 0.3517 and 0.3014
same,mitochondrial translation (fold change relative to negative control),"[2]; CD8, positive control 309 μM",0.3783 and 0.3616 and 0.3857 and 0.2719
same,cell vialibity normalized to Vehicle (DMSO),"[3]; Hela 3d, dose 1 μM",115.472 and 112.907 and 109.149 and 106.395 and 107.336
same,cell vialibity normalized to Vehicle (DMSO),"[3]; Hela 3d, dose 5 μM",99.7977 and 98.9686 and 95.4348 and 95.1889 and 93.3131
same,cell vialibity normalized to Vehicle (DMSO),"[3]; Hela 3d, dose 10 μM",85.1565 and 78.1239 and 77.2387 and 77.1403 and 78.8686
same,cell vialibity normalized to Vehicle (DMSO),"[3]; Hela 3d, dose 100 μM",10.3486 and 10.3064 and 10.2994 and 10.5805
same,cell vialibity normalized to Vehicle (DMSO),"[3]; Hela 5d, dose 1 μM",101.268 and 103.029 and 103.952 and 106.316 and 104.379
same,cell vialibity normalized to Vehicle (DMSO),"[3]; Hela 5d, dose 5 μM",96.435 and 103.217 and 108.966 and 107.207 and 102.082
same,cell vialibity normalized to Vehicle (DMSO),"[3]; Hela 5d, dose 10 μM",98.7408 and 101.357 and 94.3137 and 101.415 and 97.4373
same,cell vialibity normalized to Vehicle (DMSO),"[3]; Hela 5d, dose 50 μM",38.8993 and 53.367 and 28.3728 and 27.4352 and 29.5718
same,cell vialibity normalized to Vehicle (DMSO),"[3]; Hela 5d, dose 100 μM",5.6014 and 6.201 and 5.26 and 4.947 and 5.042
same,IC50,"[3]; Homo sapiens, 120 h, HeLa, after 5 days, read-out: IC50 (cell survival)",41.7 µM
